Measured values as given in the supplement of paper PMC10307832.

Legend:
Assay in all cases: relative viability (nuclei count vs DMSO), 5 days (fraction); higher = more cells survive
[1] = compound: COc1cc(Nc2ncc(F)c(Nc3ccc4c(n3)NC(=O)C(C)(C)O4)n2)cc(OC)c1OC [R406] + O=C(c1cc(Cc2n[nH]c(=O)c3ccccc23)ccc1F)N1CCN(C(=O)C2CC2)CC1 [Olaparib] (partner 8 µM)
In short: (§1)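 Relative viability equals treated-well nuclei counts divided by vehicle-well nuclei counts. Counts came from 4× images of lung cancer cell lines grown in 1536-well plates for 5 days after pin-tool dosing on the day after seeding. Dosing used one drug alone or a fixed anchor-drug dose plus five library-drug doses (not always all listed) in √10 steps, and values are medians of duplicate plates.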

[2] = compound: O=C(/C=C/c1cccnc1)NCCCCC1CCN(C(=O)c2ccccc2)CC1 [Daporinad] + O=C(CCCCCCC(=O)Nc1ccccc1)NO [Vorinostat] (partner 1 µM)
In short: as §1

[3] = compound: COc1cc(Nc2ncc(F)c(Nc3ccc4c(n3)NC(=O)C(C)(C)O4)n2)cc(OC)c1OC [R406] + Nc1nc2[nH]cc(CCc3ccc(C(=O)N[C@@H](CCC(=O)O)C(=O)O)cc3)c2c(=O)[nH]1 [Pemetrexed] (partner 0.2 µM)
In short: as §1

[4] = compound: O=C(/C=C/c1cccnc1)NCCCCC1CCN(C(=O)c2ccccc2)CC1 [Daporinad] + CS(=O)(=O)N1CCN(Cc2cc3nc(-c4cccc5[nH]ncc45)nc(N4CCOCC4)c3s2)CC1 [Pictilisib] (partner 1 µM)
In short: as §1

Cell Line | relative viability ([1]; first compound 0.08 µM) | relative viability ([1]; first compound 0.253 µM) | relative viability ([1]; first compound 0.8 µM) | relative viability ([1]; first compound 2.53 µM) | relative viability ([1]; first compound 8 µM) | relative viability ([2]; first compound 0.0005 µM) | relative viability ([2]; first compound 0.001581 µM) | relative viability ([2]; first compound 0.005 µM) | relative viability ([2]; first compound 0.01581 µM) | relative viability ([3]; first compound 0.08 µM) | relative viability ([3]; first compound 0.253 µM) | relative viability ([3]; first compound 0.8 µM) | relative viability ([3]; first compound 2.53 µM) | relative viability ([3]; first compound 8 µM) | relative viability ([4]; first compound 0.0005 µM) | relative viability ([4]; first compound 0.001581 µM) | relative viability ([4]; first compound 0.005 µM) | relative viability ([4]; first compound 0.01581 µM)
HCC-827 | 0.724 | 0.663 | 0.667 | 0.522 | 0.545 | 0.929 | 0.871 | 0.913 | 0.906 | 0.259 | 0.262 | 0.264 | 0.229 | 0.193 | 1.12 | 0.994 | 1.23 | 1.01
HOP-62 | 0.252 | 0.415 | 0.575 | 0.517 | 0.495 | 0.341 | 0.724 | 0.618 | 0.414 | 0.315 | 0.348 | 0.297 | 0.412 | 0.344 |  | 0.846 | 0.702 | 0.668
IA-LM | 0.835 | 1.03 | 0.913 | 0.986 | 0.882 | 0.855 | 1.25 | 0.986 | 1.09 |  |  |  |  |  | 0.357 | 0.321 | 0.308 | 0.307
LC-2-ad | 0.728 | 0.809 | 0.694 | 0.699 | 0.45 | 0.677 | 0.769 | 0.693 | 0.63 | 0.281 | 0.322 | 0.238 | 0.238 | 0.216 | 0.389 | 0.514 | 0.64 | 0.675
LCLC-97TM1 | 0.371 | 0.465 | 0.534 | 0.253 | 0.179 | 0.547 | 0.686 | 0.867 | 1.1 | 0.182 | 0.2 | 0.171 | 0.183 | 0.194 | 0.2 | 0.185 | 0.284 | 0.26
